Three molecules from PubChem BioAssay AID1117339 can be followed below.

Activity calls are given as the source filed them. The rule behind the calls is not given here.

The test system of this experiment is HCT116 viability, CellTiter-Glo, GSK3B-pretreated. Nature of the experiment: HCT116 cell viability decrease, GSK3B pretreatment – CellTiter-Glo, IC50, dose response (AID 1117339).
Take `OCCN1CCN(CC/C=C2/c3ccccc3Sc3ccc(C(F)(F)F)cc32)CC1`: the IC50 (usually the concentration that gives 50% inhibition) is 2.89 µM.
Next, `Cc1ccc([N+](=O)[O-])[c]2c1[O][Hg]2`: 2.22 µM (inactive); `CCCCCCCCCCCCCC[N+](C)(C)C`: 0.754 µM.
